We go through one substance from article PMC10812672, “Short Antimicrobial Peptide Derived from the Venom Gland Transcriptome of Pamphobeteus verdolaga Increases Gentamicin Susceptibility of Multidrug-Resistant Klebsiella pneumoniae” (Antibiotics, 2023).

For one assay, the system named is E. coli ATCC® 25922. Format: cell-based, Escherichia coli. Here is the method: (§1) The nine AMPs identified in the initial screening were evaluated at concentrations between 1.56–200 µM, against E. coli ATCC® 25922, S. aureus ATCC® 29213, E. faecalis ATCC® 49532, P. aeruginosa ATCC® 9027, and K. pneumoniae ATCC® BAA-1705 (Supplementary Figures S2–S6). […] Only PvAMP66 and PvAMP172 reached the MBC for S. aureus at 50 µM and 100 µM, respectively (Table 2).
(§2) The evaluation of the antimicrobial activity of the peptides was conducted using the CLSI’s broth microdilution method for bacterial susceptibility testing. For the screening phase, peptides were evaluated at a single 30 μM concentration, in triplicate and in three independent assays, against the E. coli ATCC® 8739, E. coli ATCC® 25922, S. aureus ATCC® 6538, or S. aureus ATCC® 29213 reference USP and CLSI strains. For the determination of MIC, MBC, or IC50, peptides or antibiotics were evaluated in concentrations between 1.56–200 µM. These evaluations were conducted in triplicate and in three independent assays, against the E. coli ATCC® 25922, S. aureus ATCC® 29213, E. faecalis ATCC® 49532, P. aeruginosa ATCC® 9027, and K. pneumoniae ATCC® BAA-1705, or the clinically isolated MDR strain. In detail, 1 mL of a glycerol stock solution of the ATCC® or clinically isolated bacterial strain was added to 9 mL of Mueller-Hinton Broth and incubated for 18 h, 180 rpm and 37 °C (Incubator 1000, Heidolph Instruments, Schwabach, Germany). After the incubation, 1 mL of the previous solution was transferred to a new recipient containing 9 mL of fresh Mueller-Hinton broth and incubated for 4 h, 180 rpm and 37 °C (Incubator 1000, Heidolph Instruments, Schwabach, Germany). During the second incubation, the peptides or the antibiotics were dissolved in PBS pH 7.20 in concentrations between 19.53–2500 µM (MC5 Micro Balance, Sartorius AG, Göttingen, Germany). An amount of 10 µL of either peptide or antibiotic was dispensed in triplicate in 96-well flat bottom culture plates, along with 10 µL of PBS (Negative activity control), BTM-P1 (Positive activity control), or 10 µL of Mueller-Hinton broth (Blank); then, 110 µL of Mueller-Hinton broth was poured in all wells. Following this, the bacteria were suspended in Mueller-Hinton broth up to a concentration of approximately 1.50 × 10^8 CFU/mL, as measured by optical density at 600 nm between 0.06 to 0.11 (0.5 McFarland standard), in a Multiskan SkyHigh spectrophotometer (ThermoFisher Scientific, Waltham, MA, USA). Amounts of 5 µL of the 1.50 × 10^8 CFU/mL suspension were added to each well (except for the blank) for a final well concentration of approximately 6 × 10^6 CFU/mL. The plate was incubated for 24 h at 37 °C (BE 500, Memmert GmbH, Büchenbach, Germany) and optical density was measured at 600 nm in a Multiskan SkyHigh spectrophotometer (ThermoFisher Scientific, Waltham, MI, USA). Following the measurement of optical density, plates were visually inspected to determine the MIC. Subsequently, 100 µL of the concentration associated to the MIC and 100 µL of the next higher concentration were added to Petri dishes containing Mueller-Hinton Agar. The dishes were then incubated for 24 h at 37 °C (BE 500, Memmert GmbH, Büchenbach, Germany). After incubation, the Petri dishes were visually inspected, and the MBC was determined in the absence of growth. IC50 values were interpolated from regressions with correlation values above 0.70. Growth inhibition percentages were calculated as follows: Growth inhibition %=1−AbsPEPTIDE or ANTIBIOTIC−Median AbsBLANK/Median AbsPBS−Median AbsBLANK×100

A further assay concerns S. aureus ATCC® 29213. Format: cell-based, Staphylococcus aureus. Here is the method:
as §1, §2

The next assay has as its system P. aeruginosa ATCC® 9027. Format: cell-based, Pseudomonas aeruginosa. Here is the method: as §1, §2
Assay [1] has as its system K. pneumoniae ATCC® BAA-1705. Format: cell-based, Klebsiella pneumoniae. Here is the method:
as §1
(§3) The evaluation of the antimicrobial activity of the peptides was conducted using the CLSI’s broth microdilution method for bacterial susceptibility testing. For the screening phase, peptides were evaluated at a single 30 μM concentration, in triplicate and in three independent assays, against the E. coli ATCC® 8739, E. coli ATCC® 25922, S. aureus ATCC® 6538, or S. aureus ATCC® 29213 reference USP and CLSI strains. […] Following this, the bacteria were suspended in Mueller-Hinton broth up to a concentration of approximately 1.50 × 10^8 CFU/mL, as measured by optical density at 600 nm between 0.06 to 0.11 (0.5 McFarland standard), in a Multiskan SkyHigh spectrophotometer (ThermoFisher Scientific, Waltham, MA, USA). […] The plate was incubated for 24 h at 37 °C (BE 500, Memmert GmbH, Büchenbach, Germany) and optical density was measured at 600 nm in a Multiskan SkyHigh spectrophotometer (ThermoFisher Scientific, Waltham, MI, USA). […]

In assay [2] the test system is Gram-positive and Gram-negative bacteria representative of the ESKAPE group. Format: cell-based. The settings on record: average over Gram-positive and Gram-negative ATCC strains of the ESKAPE group. Here is the method: as §1, §3
Where [3] appears, read: 1.56–200 µM, 24 h 37 °C, visual inspection, triplicate, three independent assays.
Setting [4] is: plating on Mueller-Hinton agar, absence of growth.
Where [5] appears, read: growth inhibition OD600, 95% confidence interval in parentheses.

Ends that are not written are not given here.

The MIC is the least concentration at which growth counts as inhibited. A low value points to inhibition by little substance. A word on the IC50: it is the point on the concentration scale where inhibition reaches its midpoint. A word on the MBC: it is the lowest tested concentration that kills the bacteria rather than only halting them. A higher MBC goes with weaker bactericidal potency. With WKKIKKFF-NH2 [PvAMP66], the minimum inhibitory concentration (MIC) with E. coli ATCC® 25922 (setting [3]) turned out to be 50 µM; against S. aureus ATCC® 29213 (setting [3]), 25 µM; in the assay with P. aeruginosa ATCC® 9027 (setting [3]), 12.5 µM; in assay [1] (1.56–200 µM, 24 h 37 °C, visual inspection) it was 100 µM. Further, the concentration for half-maximal inhibition (IC50) was 38.3 µM with E. coli ATCC® 25922 (growth inhibition OD600, interpolated from regression, 95% confidence interval in parentheses, read-out: IC50); 12.7 µM in the assay on P. aeruginosa ATCC® 9027 (setting [5]); 45.5 µM in assay [1] (setting [5]). The MBC was 50 µM in the assay on E. coli ATCC® 25922 (plating on Mueller-Hinton agar, 24 h 37 °C, absence of growth); 50 µM in the assay on S. aureus ATCC® 29213 (setting [4]); 12.5 µM with P. aeruginosa ATCC® 9027 (setting [4]). Also, the “average MIC” value in assay [2] amounted to 46.87 µM.
